Experimental data: US11401264B2, “Heterocyclic compound” (Orizuru Therapeutics, Inc., priority 2018, dated 2022)

Legend:
[1] = system: cardiomyocytes from double knock-in human iPS cell lines (mCherry at TNNI3 locus); test: Experimental Example 1: mCherry (TNNI3 reporter) immunostaining measured by high contents screening; type: cell-based; parameters: key to average fluorescent intensity (at 30 μM): —: The symbol in Table 2 means that the average fluorescent intensity cannot be evaluated due to cell decrease; settings: read on 8th day, Alexa 647 anti-mCherry, control well 797; for average fluorescent intensity (at 1 μM): test compound 1 μM added on 3rd and 6th culture days; for average fluorescent intensity (at 30 μM): test compound 30 μM added on 3rd and 6th culture days
Method in brief: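 Double knock-in iPS lines (EmGFP at TNNI1, mCherry at TNNI3) differentiated as embryoid bodies in stirred bioreactor at 37 °C, 5% O2: BMP4/activin A/bFGF, then VEGF, IWP-3, dorsomorphin, SB431542, then VEGF alone. On day 14, dissociated cells seeded at 1.0×10^4 cells/well on iMatrix-511 in AK02-based cardiomyocyte medium.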

[2] = system: cardiomyocytes (embryoid bodies) from double knock-in human iPS cell lines (mCherry at TNNI3 locus); test: Experimental Example 2: mCherry expression in TNNI1+ cells by flow cytometry; type: cell-based; settings: 3 μM, 8th-16th day, DMSO control 7.8
Method: For detection of cardiomyocyte maturation, double knock-in human iPS cell lines, in which reporter protein sequences, EmGFP (Sequence Number 1) and mCherry (Sequence Number 2) were inserted into gene loci for TNNI1 and TNNI3, respectively, were prepared (the human iPS cells were prepared from episomal vector (loaded gene; OCT3/4, KLF4, SOX2, L-MYC, LIN28, mouse p53DD) using PBMC (LP_167, Sample ID: 20130318) purchased from CTL (reference literature; Okita K, et al. Stem Cells. 2012 Nov. 29. doi: 10.1002/stem.1293)).
The maintenance culture of the above-mentioned reporter iPS cell lines was carried out by a conventional method (Okita K, et al. Stem Cells. 2012 Nov. 29. doi: 10.1002/stem.1293).
For differentiation induction into cardiomyocytes, the reporter iPS cell lines were treated with 0.5×TrypLE select (Life Technologies, diluted in 1/2 with 0.5 mM EDTA/PBS) for 4 to 5 minutes, and the cells were exfoliated using a cell scraper (IWAKI), and then dissociated into the single cell by pipetting. The medium was removed by centrifugation (1,000 rpm, 5 min), and the obtained cells were suspended in a medium prepared by adding 1% L-glutamine, transferrin 150 μg/mL, ascorbic acid 50 μg/mL (Sigma), monothioglycerol […], 10 μM Rock inhibitor (Y-27632), 2 ng/mL BMP4 (R&D) and 0.5% Matrigel (Growth Factor Reduced) to StemPro-34 SFM (ThermoFisher) in a 6 well-plate by 2×10^6 cells/1.5 mL/well, and then subjected to static culture at 37° C., under 5% oxygen condition to form embryoid bodies (0 day).
Next day (1st day), a medium prepared by adding 1% L-glutamine, transferrin 150 μg/mL, ascorbic acid 50 μg/mL (Sigma), monothioglycerol 4><10^−4 M, 1.8 μL (concentration 12 ng/mL) of 10 μg/mL activin A, […] (concentration 10 ng/mL) of 10 μg/mL bFGF and 2.7 μL (concentration 18 ng/mL) of 10 μg/mL BMP4 to 1.5 mL of StemPro-34 SFM (ThermoFisher) was added to each well of the 6 well plate containing the embryoid bodies to adjust the volume combined with the 0 day's medium to final 3 mL (activin A: 6 ng/ml, bFGF: 5 ng/ml, BMP4: 10 ng/ml), and the embryoid bodies were cultured at 37° C. for additional 2 days, under 5% oxygen condition.
Then (3rd day), the 6 well plate containing the embryoid bodies was inclined, and then left to stand for 1 to 2 minutes until the embryoid bodies were precipitated at the edges of the wells, and the supernatant was aspirated so as not to suck the embryoid bodies. Then, IMDM (ThermoFisher) medium was added to each well, and, as above, the plate was inclined, and then left to stand for 1 to 2 minutes, and the supernatant was aspirated so as not to suck the embryoid bodies. A medium prepared by adding 1% L-glutamine, transferrin 150 μg/mL, ascorbic acid 50 μg/mL (Sigma), monothioglycerol 4×10^−4 M, 10 ng/mL VEGF, 1 μM IWP-3, 0.6 μM dorsomorphin and 5.4 μM SB431542 to 3 mL of StemPro-34 SFM (ThermoFisher) was added to each well of the 6 well plate, and then the embryoid bodies were cultured at 37° C. for 3 days, under 5% oxygen condition.
Then (6th day), the 6 well plate containing the embryoid bodies was inclined, and then left to stand for 1 to 2 minutes until the embryoid bodies were precipitated at the edges of the wells, and the supernatant was aspirated so as not to suck the embryoid bodies. […]

Row | Structure (SMILES) | average fluorescent intensity (at 1 μM) [1] | average fluorescent intensity (at 30 μM) [1] | mCherry+ (%) [2] [%]
1 | O=C1c2ccc(N3CCCCC3)cc2CN1c1ccc2[nH]c(-c3ccncc3)nc2c1 [Example 45, 5-(piperidin-1-yl)-2-(2-(pyridin-4-yl)-1H-benzimidazol-5-yl)isoindolin-1-one] | 1130 | 814 | 66.6
2 | O=C1c2ccc(N3CCCCC3)cc2CN1c1ccc2[nH]c(-c3ccc(O)cc3)nc2c1 [Example 4, 2-(2-(4-hydroxyphenyl)-1H-benzimidazol-5-yl)-5-(piperidin-1-yl)isoindolin-1-one] | 1621 | 894 | 58.1
3 | O=C(COc1ccc(-c2nc3cc(N4Cc5cc(N6CCCCC6)ccc5C4=O)ccc3[nH]2)cc1)Nc1ccccc1F [Example 20, N-(2-fluorophenyl)-2-(4-(5-(1-oxo-5-(piperidin-1-yl)-1,3-dihydro-2H-isoindol-2-yl)-1H-benzimidazol-2-yl)phenoxy)acetamide] | 1685 |  | 
4 | O=C1c2ccc(N3CCCCC3)cc2CN1c1ccc2[nH]c(-c3cccnc3)nc2c1 [Example 46, 5-(piperidin-1-yl)-2-(2-(pyridin-3-yl)-1H-benzimidazol-5-yl)isoindolin-1-one] | 1142 | 1616 | 47.2
5 | O=C(COc1ccc(-c2nc3cc(N4Cc5cc(N6CCCCC6)ccc5C4=O)ccc3[nH]2)cc1)Nc1ccc2c(c1)CCS2(=O)=O [Example 17, N-(1,1-dioxido-2,3-dihydro-1-benzothiophen-5-yl)-2-(4-(5-(1-oxo-5-(piperidin-1-yl)-1,3-dihydro-2H-isoindol-2-yl)-1H-benzimidazol-2-yl)phenoxy)acetamide] | 1544 | 1079 | 42.1
6 | CCOc1ccc(-c2nc3cc(N4Cc5cc(N6CCOCC6)ccc5C4=O)ccc3[nH]2)cc1 [Example 72, 2-(2-(4-ethoxyphenyl)-1H-benzimidazol-5-yl)-5-(morpholin-4-yl)isoindolin-1-one] | 1370 | 948 | 
7 | O=C(COc1ccc(-c2nc3cc(N4Cc5cc(N6CCCCC6)ccc5C4=O)ccc3[nH]2)cc1)Nc1ccc(Cl)cc1 [Example 21, N-(4-chlorophenyl)-2-(4-(5-(1-oxo-5-(piperidin-1-yl)-1,3-dihydro-2H-isoindol-2-yl)-1H-benzimidazol-2-yl)phenoxy)acetamide] | 1120 | — | 
8 | COc1ccc(-c2nc3cc(N4Cc5cc(Br)ccc5C4=O)ccc3[nH]2)cc1 [Example 70, 5-bromo-2-(2-(4-methoxyphenyl)-1H-benzimidazol-5-yl)isoindolin-1-one] | 998 | 4335 | 
9 | CC(C)Oc1ccc(-c2nc3cc(N4Cc5cc(N6CCCCC6)ccc5C4=O)ccc3[nH]2)cc1 [Example 48, 2-(2-(4-isopropoxyphenyl)-1H-benzimidazol-5-yl)-5-(piperidin-1-yl)isoindolin-1-one] | 1182 | 1408 | 
10 | CC1(O)CCN(C(=O)COc2ccc(-c3nc4cc(N5Cc6cc(N7CCCCC7)ccc6C5=O)ccc4[nH]3)cc2)CC1 [Example 15, 2-(2-(4-(2-(4-hydroxy-4-methylpiperidin-1-yl)-2-oxoethoxy)phenyl)-1H-benzimidazol-5-yl)-5-(piperidin-1-yl)isoindolin-1-one] | 1701 | 2697 | 
11 | O=C1c2ccc(N3CCCCC3)cc2CN1c1ccc2[nH]c(-c3ccccc3)nc2c1 [Example 1, 2-(2-phenyl-1H-benzimidazol-5-yl)-5-(piperidin-1-yl)isoindolin-1-one] | 1098 | — | 
